Laboratory results published in US5545738A, “Alfuzosin hydrochloride dihydrate” (Synthelabo, priority 1993, dated 1996).
Counter-ions that a name gives are not always drawn.

How the values were obtained:
[1] = Hygroscopicity Test (25 °C, various relative humidities, 10 days); format: physicochemical
Procedure: A 0.2 g-portion of a sample of each of the anhydrous form and respective hydrates of alfuzosin hydrochloride was placed in a desiccator containing a saturated solution of the salts listed hereunder (at 25° C.), and the relationship between the relative humidity at which the hydrated states of the respective compounds become. stable physically and the hygroscopicity of polymorphic hydrated forms of those compounds was investigated. The respective samples were brought to equilibrium by storage for 10 days under the respective conditions. For the setting up of the relative humidity (RH: %) was used a saturated solution of salts listed below:
RH 0%, dry P2 O5; RH 11%, LiCl; RH 22%, CH3 COOK; RH 33%, MgCl2; RH 43%, K2 CO3.2H2 O; RH 53%, Mg(NO3)2; RH 64%, CoCl2.6H2 O; RH 75%, NaCl; RH 84%, KCl; RH 93%, KNO3; RH 100%, water.

[2] = Test on Stability to Heating, Humidifying and Light; format: physicochemical; settings: for stability, overall: conditions of table 1; for moisture content of crystal form: initial, before test
Procedure: The stability test was carried out following the procedures described below.
A 0.3 g-portion of each of the anhydrous form and respective hydrates of alfuzosin hydrochloride in crystal forms was placed in a glass bottle (sealed) and in a desiccator filled with a NaCl saturated solution, and preserved at 70° C. with a heater (Toyama Industry), after which the physicochemical stability of each compound was evaluated by X-ray powder diffraction and high performance liquid chromatography (HPLC).
Separately, 0.3 g of each of the anhydrous form and respective hydrates of alfuzosin hydrochloride in crystal forms was placed in a plastic dish which was then covered with a polyvinylidene chloride film, followed by irradiation with a chemical lamp (dominant wavelength: 365 nm) for 24 hours, for the evaluation of the light stability in the same manner as in the above.
HPLC apparatus (manufactured by Shimazu)
Detection with UV (at 254 nm); column (Nucleosil 5C18, 150 mm×4 mm, M, Nagel; flow rate 1.0 ml/m; room temperature; eluent, NaClO4 (in 1000 ml of water, 7 g, pH 3.5)- acetonitrile-THF (155:55:45): internal standard, p-chloroacetanilide (0.5 mg/ml).

[3] = Drying Test (moisture content and crystal state under drying conditions); format: physicochemical; settings: for loss of water: 1 day
Procedure: The moisture content was measured with Karl Fischer Aquameter (Kyoto Electron Industry, MK-AII) for about 100 mg of a sample dissolved in methanol for moisture measurement. In turn, the dehydration behavior of the crystal water was measured by thermogravimetry and differential thermal analysis using TG/DTA200 thermogravimetric apparatus and SSC5030 Disc Station (Seiko). Concretely, approximately 5 mg of a sample was weighed into an open aluminum pan and analyzed at a rate of temperature increase of 10° C./m or 1° C./m. This analysis was carried out in a nitrogen atmosphere (flow rate: 100 ml/m).
Different from the hygroscopicity test mentioned above, the various hydrates of alfuzosin hydrochloride were kept under drying conditions for the monitoring of the change in moisture content.
In this connection, simultaneously in the present test, also the crystal state of dried samples after a three-days' drying was investigated for the dihydrate of the present invention by X-ray powder diffraction under drying conditions, for comparison with patterns of X-ray powder diffraction under normal conditions.

[4] = Accelerated Test (100 °C and 120 °C, X-ray powder diffraction); format: physicochemical; settings: for crystal form change: 2 hours
Procedure: A 0.3 g-portion of each of the hydrates of alfuzosin hydrochloride was preserved in heaters (Sanyo) set to 100° C. and 120° C., for the confirmation of the stability of the respective hydrates. The physical stability of the respective samples was confirmed by X-ray powder diffraction.
In this test, the crystal state of the respective hydrates was monitored by X-ray powder diffraction every 30 minutes for 2 hours.

[5] = as above; format: physicochemical; settings: 45 min.
α1 -adrenergic receptor = settings: cited from earlier work
[6] = overall stability of crystal forms (tests 1-4); format: physicochemical; settings: normal preservation (25° C., RH 40-80%) and heating (50°-60° C.); Hydrochloride Dihydrate
[7] = Chemical lamp (365 nm), 24 hours
[8] = after 70° C., 9 days at RH 75%, hydrochloride
[9] = after 70° C., 9 days, hydrochloride
[10] = after chemical lamp (365 nm), 24 hours, hydrochloride

For `COc1cc2nc(N(C)CCCNC(=O)C3CCCO3)nc(N)c2cc1OC` (centres unmarked) [Anhydrous, anhydrous alfuzosin hydrochloride], the “relative humidity at which stable” value ([1]; 25° C., 10 days) was no more than 75%, the equilibrium moisture content ([1]; RH over 75%, 25° C.) was 12% and the “moisture content change at RH over 75%” value ([1]; RH over 75%, 25° C.) was “increased significantly”. For the same molecule, the “moisture content, equivalent moles of water” value ([1]; equilibrium, RH over 75%, 25° C.) was 3 moles of water, the “crystal form change on preservation” value ([1]; relative humidity exceeding 75%) was “the crystal structure of the anhydrous formchanges, thereby providing a trihydrate” and the stability ([2]; 70° C., 9 days) was “Stable”. For the same molecule, the stability ([2]; 70° C., 9 days at RH 75%) was “Stable”, the stability [2, 7] was “Stable” and the moisture content [2, 8] was 0.7%. The moisture content [2, 9] was 1.33%, the moisture content [2, 10] was 0.66% and the “stability, overall” value ([2]; listed as anhydrous form, hydrochloride) was “extremely stable”. The “moisture content of crystal form” value ([2]; hydrochloride) was 0.1%.
In the case of `COc1cc2nc(N(C)CCCNC(=O)C3CCCO3)nc(N)c2cc1OC` (centres unmarked) [Trihydrate (TRI), trihydrate of alfuzosin hydrochloride], the loss of water ([3]; drying conditions) is reported as “lost most of the water in 1 day”, the TRI content ([2]; 70° C., 9 days) is reported as 68% and the TRI content ([2]; 70° C., 9 days at RH 75%) is reported as 84%. The DI content ([2]; 70° C., 9 days at RH 75%, hydrochloride) was 16%, the DI content ([2]; 70° C., 9 days, hydrochloride) was 37% and the stability [2, 7] was “Stable”. It also gave a moisture content [2, 8] of 12.03%, a moisture content [2, 9] of 11.05% and a moisture content [2, 10] of 12.87%. For the same molecule, the “stability, overall” value ([2]; hydrochloride) was “changed partially into the dihydrate, so they are considered unstable”, the “moisture content of crystal form” value ([2]; hydrochloride) was 12.75% and the crystal form ([4]; 100° C., 30 min., hydrochloride) was “TRI”. For the same molecule, the crystal form ([4]; 100° C., 60 min., hydrochloride) was “TRI + DI”, the crystal form ([4]; 100° C., 90 min., hydrochloride) was “TRI + DI” and the crystal form ([4]; 100° C., 120 min., hydrochloride) was “TRI + DI”. For the same molecule, the crystal form change ([4]; 100° C.) was “changed into the dihydrate by degrees”, the crystal form ([5]; hydrochloride) was “AN + DI + TRI” and the crystal form change ([5]; hydrochloride) was “changed into a mixture of the anhydrous form, dihydrate and trihydrate”.
For `COc1cc2nc(N(C)CCCNC(=O)C3CCCO3)nc(N)c2cc1OC` (centres unmarked) [alfuzosin hydrochloride], the “α1 -adrenergic receptor antagonism” value (α1 -adrenergic receptor) is given as “antagonist of α1 -adrenergic receptor”.
In the case of `COc1cc2nc(N(C)CCCNC(=O)C3CCCO3)nc(N)c2cc1OC` (centres unmarked) [Tetrahydrate (TETRA), alfuzosin hydrochloride tetrahydrate], the loss of water ([3]; drying conditions) is reported as “lost most of the water in 1 day”, the DI content ([2]; 70° C., 9 days) is reported as 26% and the TETRA content ([2]; 70° C., 9 days) is reported as 74%. It also gave a DI content ([2]; 70° C., 9 days at RH 75%) of 98%, a TETRA content ([2]; 70° C., 9 days at RH 75%) of 2% and a moisture content ([2]; after 70° C., 9 days) of 13.19%. The moisture content ([2]; after 70° C., 9 days at RH 75%) was 8.25%, the moisture content ([2]; after chemical lamp (365 nm), 24 hours) was 15.18% and the “stability, overall” value [2] was “changed partially into the dihydrate, so they are considered unstable”. For the same molecule, the “moisture content of crystal form” value [2] was 14.93%, the crystal form ([4]; 100° C., 30 min.) was “TETRA + DI” and the crystal form change ([4]; 100° C.) was “changed into the dihydrate by degrees”. For the same molecule, the crystal form change [5] was “changed into the dihydrate”.
In the case of `COc1cc2nc(N(C)CCCNC(=O)C3CCCO3)nc(N)c2cc1OC` (centres unmarked) [Dihydrate (DI), Alfuzosin Hydrochloride Dihydrate], the dehydration process ([3]; drying conditions) is reported as “goes very slowly”, the “change in moisture content” value ([3]; drying conditions, 3 days) is reported as “no significant change in moisture content” and the “crystal form after drying” value ([3]; three-days' drying, X-ray powder diffraction) is reported as “retains its original crystal form, with some drop in degree of crystallization”. For the same molecule, the stability ([2]; 70° C., 9 days) was “Stable”, the stability ([2]; 70° C., 9 days at RH 75%) was “Stable” and the stability [2, 7] was “Stable”. The moisture content ([2]; after 70° C., 9 days at RH 75%, Hydrochloride Dihydrate) was 8.48%, the moisture content ([2]; after 70° C., 9 days, Hydrochloride Dihydrate) was 8.41% and the moisture content ([2]; after chemical lamp (365 nm), 24 hours, Hydrochloride Dihydrate) was 8.40%. The “stability, overall” value ([2]; Hydrochloride Dihydrate) was “extremely stable”, the “moisture content of crystal form” value ([2]; Hydrochloride Dihydrate) was 8.14% and the time stable ([4]; 100° C.) was no less than 2 h. The time stable ([4]; 120° C.) was no less than 0.75 h and the “relative stability among crystal forms” value [6] was “the stablest crystal form”.
